Results published in patent US20190062846A1, “COMPOSITIONS AND METHODS FOR SCREENING PEDIATRIC GLIOMAS AND METHODS OF TREATMENT THEREOF” (DANA-FARBER CANCER INSTITUTE, INC., priority 2016, published 2019).

Legend:
[1] = test system: mouse neural stem cells engineered to express MYB-QKI5 (short variant); experiment: Percentage viability of mouse neural stem cells after increased doses of inhibitor; type: cell-based; details: mNSCs expressing MYB-QKI5 (short variant); doses 0, 0.05, 0.1, 0.3, 0.5, 1 μM; in comparison with GFP-expressing mNSCs; FIG. 42C
Method: (§1) FIGS. 42A-D are a set of graphs showing percentage viability of mouse neural stem cells expressing GFP (FIG. 42A), truncated MYB (FIG. 42B), MYB-QKI5 (short variant) (FIG. 42C), and MYB-QKI6 (short variant) (FIG. 42D) after the treatment of increased doses (0, 0.05, 0.1, 0.3, 0.5, and 1 μM) of JQ1, THZ1 (“CDK7i”), and DMSO as negative control.
(§2) FIG. 44 is a graph showing the percentage viability of mouse neural stem cells expressing GFP (“GFP”), truncated MYB (“MYBtr”), MYB-QKI5 (short variant) (“MYBQKI5”), and MYB-QKI6 (short variant) (“MYBQKI6”) after the treatment of increased doses (0, 0.05, 0.1, 0.3, 0.5, and 1 μM) of dasatinib or DMSO as negative control.
(§3) Modifiers of the MYB pathway and key upstream and downstream effectors were examined for their ability to inhibit growth and induce death of cells expressing MYB-QKI fusion protein. […] Thus, cells expressing truncated MYB or MYB-QKI were specifically sensitive to inhibition of BET by JQ1.
(§4) 1,000 cells/well were plated in 96-well plates, with five replicates. Cell viability was measured by assessing ATP content using CellTiter-Glo (Promega). Means±s.e.m. were calculated.

[2] = test system: mouse neural stem cells engineered to express truncated MYB; experiment: as above; type: cell-based; details: mNSCs expressing truncated MYB; doses 0, 0.05, 0.1, 0.3, 0.5, 1 μM; in comparison with GFP-expressing mNSCs; FIG. 42B
Method: as §1, §2, §3, §4

[3] = test system: mouse neural stem cells engineered to express MYB-QKI6 (short variant); experiment: as above; type: cell-based; details: mNSCs expressing MYB-QKI6 (short variant); doses 0, 0.05, 0.1, 0.3, 0.5, 1 μM; in comparison with GFP-expressing mNSCs; FIG. 42D
Method: as §1, §2, §3, §4

[4] = test system: mouse neural stem cells engineered to express MYB-QKI5 (short variant); experiment: Cell growth of mouse neural stem cells over a time course; type: cell-based; details: mNSCs expressing MYB-QKI5 (short variant); 0.5 μM or 1 μM; 0, 1, 3, 5 days; in comparison with GFP-expressing mNSCs; FIG. 43C
Method: (§5) FIGS. 43A-D are a set of graphs showing cell growth of mouse neural stem cells expressing GFP (FIG. 43A), truncated MYB (FIG. 43B), MYB-QKI5 (short variant) (FIG. 43C), and MYB-QKI6 (short variant) (FIG. 43D) over a time course (0, 1, 3, and 5 days) in the presence of 0.5 μM or 1 μM of LY2835219 (“CDK4/6 inhibitor”).
(§6) Inhibition of CDK7 was also examined using a specific CDK7 inhibitor THZ1. […] Thus, cells expressing MYB-QKI were sensitive to inhibition of CDK7 by THZ1. This effect is specific with CDK7. […] Thus, cells expressing truncated MYB or MYB-QKI were specifically sensitive to inhibition of CDK7 by THZ1.
as §4

[5] = test system: mouse neural stem cells engineered to express truncated MYB; experiment: as above; type: cell-based; details: mNSCs expressing truncated MYB; 0.5 μM or 1 μM; 0, 1, 3, 5 days; in comparison with GFP-expressing mNSCs; FIG. 43B
Method: as §5, §6, §4

[6] = test system: mouse neural stem cells engineered to express MYB-QKI6 (short variant); experiment: as above; type: cell-based; details: mNSCs expressing MYB-QKI6 (short variant); 0.5 μM or 1 μM; 0, 1, 3, 5 days; in comparison with GFP-expressing mNSCs; FIG. 43D
Method: as §5, §6, §4

[7] = test system: MYB-QKI6 (short variant) fusion protein; experiment: Quantity of protein after treatment with DUB inhibitor; type: cell-based, human; details: after treatment with PR619; FIG. 45
Excerpt: (§7) FIG. 45 is a graph showing the quantity of truncated MYB or MYB-QKI fusion protein after the treatment with PR619.
(§8) Another possible approach of suppressing cells expressing truncated MYB or MYB-QKI is reducing the amount of the truncated MYB or MYB-QKI protein, for example, by increasing the degradation of this protein. DUBs remove ubiquitination and thereby increase the half-life of proteins. Thus, DUB inhibitors may accelerate the degradation of truncated MYB or MYB-QKI.
(§9) Cells were lysed and subjected to SDS-PAGE gradient gels as previously described3l. Blots were probed with antibodies against MYB (ab45150, Abcam at 1:500 dilution), QKI (A300-183A, Bethyl Laboratories at 1:1,000 dilution) and actin (sc-1615, Santa Cruz Biotechnology at 1:2,000 dilution).

[8] = test system: MYB-QKI5 (short variant) fusion protein; experiment: as above; type: cell-based, human; details: after treatment with PR619; FIG. 45
Excerpt: as §7, §8, §9

truncated MYB ("MYBtr") = experiment: as above; type: cell-based, human; details: after treatment with PR619; FIG. 45
Excerpt: as §7, §8, §9

Row | SMILES | viability of cells [1] | viability of cells [2] | viability of cells [3] | also measured
1 | Cc1sc2c(c1C)C(c1ccc(Cl)cc1)=N[C@@H](CC(=O)OC(C)(C)C)c1nnc(C)n1-2 [JQ1] | significantly compromised the viability | significantly compromised the viability | significantly compromised the viability | 
2 | CCN1CCN(Cc2ccc(Nc3ncc(F)c(-c4cc(F)c5nc(C)n(C(C)C)c5c4)n3)nc2)CC1 [LY2835219] |  |  |  | cell growth [4]: did not strongly inhibit the growth; cell growth [5]: did not strongly inhibit the growth; cell growth [6]: did not strongly inhibit the growth
3 | N#CSc1cc(SC#N)c(N)nc1N [PR619] |  |  |  | amount of MYB-QKI6 (short variant) protein [7]: reduced the amount; amount of MYB-QKI5 (short variant) protein [8]: reduced the amount; amount of truncated MYB protein (truncated MYB ("MYBtr")): reduced the amount
4 | CN(C)C/C=C/C(=O)Nc1ccc(C(=O)Nc2cccc(Nc3ncc(Cl)c(-c4c[nH]c5ccccc45)n3)c2)cc1 [THZ1] | significantly compromised the viability | significantly compromised the viability | significantly compromised the viability | 
